Assay results taken from ChEMBL document CHEMBL4680352, “Rational design and synthesis of 6-aryl-6H-benzo[c]chromenes as non-steroidal progesterone receptor antagonists for use against cancers” (Bioorg Med Chem, 2021).

System: MDA-MB-231
Assay: Antiproliferative activity against human MDA-MB-231 cells assessed as inhibition of cell viability at 20 uM after 72 hrs by CCK-8 assay relative to control
Type: functional
Conditions: not given

Row | Compound | inhibition at 20 µM
1 | COc1ccc(C2Oc3ccc(C)cc3-c3ccccc32)cc1 (stereo unspecified) | 23.2%
2 | COc1ccc2c(c1)-c1ccccc1OC2c1ccc(Cl)cc1 (stereo unspecified) | 32.4%
3 | COc1ccc(C2Oc3ccccc3-c3cc(OC)ccc32)cc1 (stereo unspecified) | 52.7%
4 | CCOc1ccc(C2Oc3ccccc3-c3cc(OC)ccc32)cc1 (stereo unspecified) | 28.3%
5 | COc1ccc2c(c1)-c1ccccc1OC2c1ccc(O[Si](C)(C)C(C)(C)C)cc1 (stereo unspecified) | 31%
6 | c1ccc(C2Oc3ccccc3-c3ccccc32)cc1 (stereo unspecified) | 27.2%
7 | COc1ccc2c(c1)-c1ccccc1OC2c1ccc(C)cc1 (stereo unspecified) | 35.7%
8 | COc1ccc(C2Oc3ccc(OC)cc3-c3ccccc32)cc1 (stereo unspecified) | 28.2%
9 | COc1ccc(C2Oc3ccccc3-c3ccccc32)cc1 (stereo unspecified) | 21.2%
10 | Cc1ccc(C2Oc3ccccc3-c3ccccc32)cc1 (stereo unspecified) | 23.7%
11 | COc1ccc2c(c1)-c1ccccc1OC2c1ccc(Br)cc1 (stereo unspecified) | 31%
12 | CCOc1ccc(C2Oc3ccccc3-c3ccccc32)cc1 (stereo unspecified) | 35.6%

System: MCF7
Assay: Antiproliferative activity against human MCF7 cells assessed as inhibition of cell viability after 72 hrs by CCK-8 assay
Type: functional, cell-based
Conditions: MCF7, 72 h

Row | Compound | IC50
13 | CC#C[C@]1(O)CC[C@H]2[C@@H]3CCC4=CC(=O)CCC4=C3[C@@H](c3ccc(N(C)C)cc3)C[C@@]21C [MIFEPRISTONE] | 24 µM

System: PC-3
Assay: Antiproliferative activity against human PC-3 cells assessed as inhibition of cell viability at 20 uM after 72 hrs by CCK-8 assay relative to control
Type: functional
Conditions: not given

Row | Compound | inhibition at 20 µM
14 | COc1ccc(C2Oc3ccc(C)cc3-c3ccccc32)cc1 (stereo unspecified) | 36.3%
15 | COc1ccc2c(c1)-c1ccccc1OC2c1ccc(Cl)cc1 (stereo unspecified) | 41.1%
16 | COc1ccc(C2Oc3ccccc3-c3cc(OC)ccc32)cc1 (stereo unspecified) | 55.4%
17 | CCOc1ccc(C2Oc3ccccc3-c3cc(OC)ccc32)cc1 (stereo unspecified) | 45%
18 | COc1ccc2c(c1)-c1ccccc1OC2c1ccc(O[Si](C)(C)C(C)(C)C)cc1 (stereo unspecified) | 36.5%
19 | c1ccc(C2Oc3ccccc3-c3ccccc32)cc1 (stereo unspecified) | 19.2%
20 | COc1ccc2c(c1)-c1ccccc1OC2c1ccc(C)cc1 (stereo unspecified) | 38.9%
21 | COc1ccc(C2Oc3ccc(OC)cc3-c3ccccc32)cc1 (stereo unspecified) | 36.3%
22 | COc1ccc(C2Oc3ccccc3-c3ccccc32)cc1 (stereo unspecified) | 37%
23 | Cc1ccc(C2Oc3ccccc3-c3ccccc32)cc1 (stereo unspecified) | 26%
24 | COc1ccc2c(c1)-c1ccccc1OC2c1ccc(Br)cc1 (stereo unspecified) | 43.9%
25 | CCOc1ccc(C2Oc3ccccc3-c3ccccc32)cc1 (stereo unspecified) | 34%

System: MCF7
Assay: Antiproliferative activity against human MCF7 cells assessed as inhibition of cell viability at 20 uM after 72 hrs by CCK-8 assay relative to control
Type: functional
Conditions: not given

Row | Compound | inhibition at 20 µM
26 | COc1ccc(C2Oc3ccc(C)cc3-c3ccccc32)cc1 (stereo unspecified) | 32.9%
27 | COc1ccc2c(c1)-c1ccccc1OC2c1ccc(Cl)cc1 (stereo unspecified) | 35.6%
28 | COc1ccc(C2Oc3ccccc3-c3cc(OC)ccc32)cc1 (stereo unspecified) | 59.6%
29 | CCOc1ccc(C2Oc3ccccc3-c3cc(OC)ccc32)cc1 (stereo unspecified) | 41.1%
30 | COc1ccc2c(c1)-c1ccccc1OC2c1ccc(O[Si](C)(C)C(C)(C)C)cc1 (stereo unspecified) | 31.4%
31 | c1ccc(C2Oc3ccccc3-c3ccccc32)cc1 (stereo unspecified) | 25.3%
32 | COc1ccc2c(c1)-c1ccccc1OC2c1ccc(C)cc1 (stereo unspecified) | 40.4%
33 | COc1ccc(C2Oc3ccc(OC)cc3-c3ccccc32)cc1 (stereo unspecified) | 34.7%
34 | COc1ccc(C2Oc3ccccc3-c3ccccc32)cc1 (stereo unspecified) | 34.4%
35 | Cc1ccc(C2Oc3ccccc3-c3ccccc32)cc1 (stereo unspecified) | 30.2%
36 | COc1ccc2c(c1)-c1ccccc1OC2c1ccc(Br)cc1 (stereo unspecified) | 40.5%
37 | CCOc1ccc(C2Oc3ccccc3-c3ccccc32)cc1 (stereo unspecified) | 32%

System: BGC-823
Assay: Antiproliferative activity against human BGC-823 cells assessed as inhibition of cell viability at 20 uM after 72 hrs by CCK-8 assay relative to control
Type: functional
Conditions: not given

Row | Compound | inhibition at 20 µM
38 | COc1ccc(C2Oc3ccc(C)cc3-c3ccccc32)cc1 (stereo unspecified) | 27.6%
39 | COc1ccc2c(c1)-c1ccccc1OC2c1ccc(Cl)cc1 (stereo unspecified) | 37%
40 | COc1ccc(C2Oc3ccccc3-c3cc(OC)ccc32)cc1 (stereo unspecified) | 50.6%
41 | CCOc1ccc(C2Oc3ccccc3-c3cc(OC)ccc32)cc1 (stereo unspecified) | 26.6%
42 | COc1ccc2c(c1)-c1ccccc1OC2c1ccc(O[Si](C)(C)C(C)(C)C)cc1 (stereo unspecified) | 25.5%
43 | c1ccc(C2Oc3ccccc3-c3ccccc32)cc1 (stereo unspecified) | 18.8%
44 | COc1ccc2c(c1)-c1ccccc1OC2c1ccc(C)cc1 (stereo unspecified) | 37.4%
45 | COc1ccc(C2Oc3ccc(OC)cc3-c3ccccc32)cc1 (stereo unspecified) | 42.5%
46 | COc1ccc(C2Oc3ccccc3-c3ccccc32)cc1 (stereo unspecified) | 34.1%
47 | Cc1ccc(C2Oc3ccccc3-c3ccccc32)cc1 (stereo unspecified) | 25%
48 | COc1ccc2c(c1)-c1ccccc1OC2c1ccc(Br)cc1 (stereo unspecified) | 24.1%
49 | CCOc1ccc(C2Oc3ccccc3-c3ccccc32)cc1 (stereo unspecified) | 26.4%

System: A549
Assay: Antiproliferative activity against human A549 cells assessed as inhibition of cell viability at 20 uM after 72 hrs by CCK-8 assay relative to control
Type: functional
Conditions: not given

Row | Compound | inhibition at 20 µM
50 | COc1ccc(C2Oc3ccc(C)cc3-c3ccccc32)cc1 (stereo unspecified) | 29.4%
51 | COc1ccc2c(c1)-c1ccccc1OC2c1ccc(Cl)cc1 (stereo unspecified) | 36%
52 | COc1ccc(C2Oc3ccccc3-c3cc(OC)ccc32)cc1 (stereo unspecified) | 49.6%
53 | CCOc1ccc(C2Oc3ccccc3-c3cc(OC)ccc32)cc1 (stereo unspecified) | 40.5%
54 | COc1ccc2c(c1)-c1ccccc1OC2c1ccc(O[Si](C)(C)C(C)(C)C)cc1 (stereo unspecified) | 31.2%
55 | c1ccc(C2Oc3ccccc3-c3ccccc32)cc1 (stereo unspecified) | 23.8%
56 | COc1ccc2c(c1)-c1ccccc1OC2c1ccc(C)cc1 (stereo unspecified) | 31.1%
57 | COc1ccc(C2Oc3ccc(OC)cc3-c3ccccc32)cc1 (stereo unspecified) | 36.2%
58 | COc1ccc(C2Oc3ccccc3-c3ccccc32)cc1 (stereo unspecified) | 29.9%
59 | Cc1ccc(C2Oc3ccccc3-c3ccccc32)cc1 (stereo unspecified) | 23.5%
60 | COc1ccc2c(c1)-c1ccccc1OC2c1ccc(Br)cc1 (stereo unspecified) | 38.8%
61 | CCOc1ccc(C2Oc3ccccc3-c3ccccc32)cc1 (stereo unspecified) | 34.9%
